Reference: ChEMBL document CHEMBL4477276, “Synthesis and aromatase inhibitory evaluation of 4-N-nitrophenyl substituted amino-4H-1,2,4-triazole derivatives” (Bioorg Med Chem, 2016)

Target: T1, Aromatase (Homo sapiens, UniProt P11511)
T1 sequence (P11511 whole entry): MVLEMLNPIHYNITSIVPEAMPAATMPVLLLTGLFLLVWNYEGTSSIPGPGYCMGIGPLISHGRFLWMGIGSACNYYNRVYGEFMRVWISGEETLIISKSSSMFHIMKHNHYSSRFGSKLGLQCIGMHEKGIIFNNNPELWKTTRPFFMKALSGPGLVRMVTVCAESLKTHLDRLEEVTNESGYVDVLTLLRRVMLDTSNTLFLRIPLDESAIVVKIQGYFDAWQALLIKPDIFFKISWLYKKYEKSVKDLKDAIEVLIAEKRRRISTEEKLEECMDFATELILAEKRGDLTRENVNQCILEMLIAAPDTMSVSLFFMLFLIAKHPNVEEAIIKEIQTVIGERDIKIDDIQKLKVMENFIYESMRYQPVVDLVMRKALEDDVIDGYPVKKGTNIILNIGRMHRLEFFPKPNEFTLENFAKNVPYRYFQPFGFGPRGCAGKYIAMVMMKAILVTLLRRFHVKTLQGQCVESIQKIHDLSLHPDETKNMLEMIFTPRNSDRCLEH
Test: Inhibition of recombinant human aromatase using 7-methoxy-trifluoromethylcoumarin as substrate incubated for 30 mins by fluorescence microplate reader analysis

Structure (SMILES)	IC50 [µM]
O=[N+]([O-])c1ccc(N(Cc2cccc(C(F)(F)F)c2)n2cnnc2)cc1Br	0.0174
O=[N+]([O-])c1ccc(N(Cc2ccc(C(F)(F)F)cc2)n2cnnc2)cc1Br	0.0436
O=[N+]([O-])c1ccc(N(Cc2ccccc2)n2cnnc2)cc1Br	0.0398
N#Cc1cccc(CN(c2ccc([N+](=O)[O-])c(-c3ccccc3)c2)n2cnnc2)c1	0.0732
O=[N+]([O-])c1ccc(Nn2cnnc2)cc1Br	0.0907
O=[N+]([O-])c1ccc(N(Cc2cccc(C(F)(F)F)c2)n2cnnc2)cc1-c1ccccc1	0.0174
O=[N+]([O-])c1ccc(N(Cc2ccc(C(F)(F)F)cc2)n2cnnc2)cc1-c1ccccc1	0.0145
O=[N+]([O-])c1cccc(CN(c2ccc([N+](=O)[O-])c(-c3ccccc3)c2)n2cnnc2)c1	0.0197
N#Cc1ccccc1CN(c1ccc([N+](=O)[O-])c(Br)c1)n1cnnc1	0.0588
N#Cc1cccc(CN(c2ccc([N+](=O)[O-])c(Br)c2)n2cnnc2)c1	0.0576
O=[N+]([O-])c1ccc(N(Cc2ccc(Cl)cc2)n2cnnc2)cc1Br	0.00902
O=[N+]([O-])c1cccc(CN(c2ccc([N+](=O)[O-])c(Br)c2)n2cnnc2)c1	0.0121
O=[N+]([O-])c1ccc(N(Cc2ccccc2)n2cnnc2)cc1-c1ccccc1	0.0302
